Experimental data reported in US7348425B2, “Inhibitors of HCV replication” (Bristol-Myers Squibb Company, priority 2004, dated 2008).

Key:
[1] = target: T1, HCV NS5B RdRp genotype 1b (Hepatitis C virus genotype 1b, UniProt Q9WMX2); test: Standard HCV NS5B RdRp enzyme assay; type: biochemical; settings: standard method
T1 construct: The protein was expressed with an 18 amino acid C-terminal truncation to enhance the solubility; made in house; host or cells: E. coli BL21 (DE3), pET21a
Procedure: HCVNS5B RdRp cloning, expression, and purification. The cDNA encoding the NS5B protein of HCV, genotype 1b, was cloned into the pET21a expression vector. The protein was expressed with an 18 amino acid C-terminal truncation to enhance the solubility. The E. coli competent cell line BL21 (DE3) was used for expression of the protein. Cultures were grown at 37° C. for ˜4 hours until the cultures reached an optical density of 2.0 at 600 nm. The cultures were cooled to 20° C. and induced with 1 mM IPTG. Fresh ampicillin was added to a final concentration of 50 μg/ml and the cells were grown overnight at 20° C.
Cell pellets (3 L) were lysed for purification to yield 15-24 mgs of purified NS5B. The lysis buffer consisted of 20 mM Tris-HCl, pH 7.4, 500 mM NaCl, 0.5% triton X-100, 1 mM DTT, 1 mM EDTA, 20% glycerol, 0.5 mg/ml lysozyme, 10 mM MgCl2, 15 ug/ml deoxyribonuclease I, and Complete TM protease inhibitor tablets (Roche). After addition of the lysis buffer, frozen cell pellets were resuspended using a tissue homogenizer. To reduce the viscosity of the sample, aliquots of the lysate were sonicated on ice using a microtip attached to a Branson sonicator. The sonicated lysate was centrifuged at 100,000×g for 1 hr at 4° C. and filtered through a 0.2 μm filter unit (Corning).
The protein was purified using three sequential chromatography steps: Heparin sepharose CL-6B, polyU sepharose 4B, and Hitrap SP sepharose (Pharmacia). The chromatography buffers were identical to the lysis buffer but contained no lysozyme, deoxyribonuclease I, MgCl2 or protease inhibitor and the NaCl concentration of the buffer was adjusted according to the requirements for charging the protein onto the column. Each column was eluted with a NaCl gradient which varied in length from 5-50 column volumes depending on the column type. After the final chromatography step, the resulting purity of the enzyme is >90% based on SDS-PAGE analysis. The enzyme was aliquoted and stored at −80° C.
Standard HCV NS5B RdRp enzyme assay. HCV RdRp genotype Ib assays were run in a final volume of 60 μl in 96 well plates (Costar 3912). The assay buffer is composed of 20 mM Hepes, pH 7.5, 2.5 mM KCl, 2.5 mM MgCl2, 1 mM DTT, 1.6 U RNAse inhibitor (Promega N2515), 0.1 mg/ml BSA (Promega R3961), and 2% glycerol. All compounds were serially diluted (3-fold) in DMSO and diluted further in water such that the final concentration of DMSO in the assay was 2%. HCV RdRp genotype 1b enzyme was used at a final concentration of 28 nM. A polyA template was used at 6 nM, and a biotinylated oligo-dT12 primer was used at 180 nM final concentration. Template was obtained commercially (Amersham 27-4110). Biotinylated primer was prepared by Sigma Genosys. ^3H-UTP was used at 0.6 μCi (0.29 μM total UTP). Reactions were initiated by the addition of enzyme, incubated at 30° C. for 60 min, and stopped by adding 25 μl of 50 mM EDTA containing SPA beads (4 μg/μl, Amersham RPNQ 0007). Plates were read on a Packard Top Count NXT after >1 hr incubation at room temperature.
The IC50 values for compounds were determined using seven different [I]. IC50 values were calculated from the inhibition using the formula y=A+((B−A)/(1+((C/x)^D))). FRET Assay Preparation. To perform the HCV FRET screening assay, 96-well cell culture plates were used. The FRET peptide (Anaspec, Inc.) (Taliani et al., Anal. Biochem. 240:60-67 (1996), hereby incorporated by reference in its entirety) contains a fluorescence donor, EDANS, near one end of the peptide and an acceptor, DABCYL, near the other end. The fluorescence of the peptide is quenched by […] resonance energy transfer (RET) between the donor and the acceptor, but as the NS3 protease cleaves the peptide the products are released from RET quenching and the fluorescence of the donor becomes apparent. […]

HCV replicon = HCV replicon luciferase assay; type: cell-based, Hepatitis C virus; settings: Hepatitis C virus, luciferase method; read-out: EC50
Procedure: To prepare plates, HCV replicon cells, with or without a Renilla luciferase reporter gene, were trypsinized and placed into each well of a 96-well plate with titrated test compounds added in columns 3 through 12; columns 1 and 2 contained a control compound (HCV protease inhibitor), and the bottom row contained cells without compound. The plates were then placed in a CO2 incubator at 37 degrees C.
Assays. Subsequent to addition of the test compounds described above (FRET Assay Preparation), at various times the plate was removed and Alamar blue solution (Trek Diagnostics, #00-100) was added per well as a measure of cellular toxicity. After reading in a Cytoflour 4000 instrument (PE Biosystems), plates were rinsed with PBS and then used for FRET assay by the addition of 30 ul of the FRET peptide assay reagent described above (FRET Assay Preparation) per well. The plate was then placed into the Cytoflour 4000 instrument which had been set to 340 excite/490 emission, automatic mode for 20 cycles and the plate read in a kinetic mode. Typically, the signal to noise using an endpoint analysis after the reads was at least three-fold. Alternatively, after Alamar blue reading, plates were rinsed with PBS, 50 ul of DMEM (high glucose) without phenol red was added and plates were then used for luciferase assay using the Promega Dual-Glo Luciferase Assay System.
Compound analysis was determined by quantification of the relative HCV replicon inhibition and the relative cytotoxicity values. To calculate cytoxicity values, the average Alamar Blue fluorescence signals from the control wells were set as 100% non-toxic. The individual signals in each of the compound test wells were then divided by the average control signal and multiplied by 100% to determine […]. To calculate the HCV replicon inhibition values, an average background value was obtained from the two wells containing the highest amount of HCV protease inhibitor at the end of the assay period. These numbers were similar to those obtained from naïve Huh-7 cells.
The background numbers were then subtracted from the average signal obtained from the control wells and this number was used as 100% activity. The individual signals in each of the compound test wells were then divided by the averaged control values after background subtraction and multiplied by 100% to determine percent activity. EC50 values for a protease inhibitor titration were calculated as the concentration which caused a 50% reduction in FRET or luciferase activity. The two numbers generated for the compound plate, percent cytoxicity and percent activity were used to determine compounds of interest for further analysis.

T1 sequence (Q9WMX2 2420-2992): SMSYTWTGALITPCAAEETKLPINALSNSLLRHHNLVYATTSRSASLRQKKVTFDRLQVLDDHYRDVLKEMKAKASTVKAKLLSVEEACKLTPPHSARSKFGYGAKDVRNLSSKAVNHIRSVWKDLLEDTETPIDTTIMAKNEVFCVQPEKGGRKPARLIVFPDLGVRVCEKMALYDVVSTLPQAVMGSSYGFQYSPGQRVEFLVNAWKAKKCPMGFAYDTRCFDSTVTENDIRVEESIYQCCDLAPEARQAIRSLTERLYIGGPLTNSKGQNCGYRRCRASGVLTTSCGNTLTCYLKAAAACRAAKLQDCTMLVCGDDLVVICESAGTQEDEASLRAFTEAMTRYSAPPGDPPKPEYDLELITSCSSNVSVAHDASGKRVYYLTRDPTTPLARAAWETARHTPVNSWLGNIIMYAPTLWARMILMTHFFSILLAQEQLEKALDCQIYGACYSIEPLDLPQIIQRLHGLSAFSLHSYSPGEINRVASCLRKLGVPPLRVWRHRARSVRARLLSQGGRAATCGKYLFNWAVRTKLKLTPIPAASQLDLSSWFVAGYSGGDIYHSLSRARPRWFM

SMILES	IC50 [1]	EC50 (HCV replicon)
O=C(O)c1ccc2c(C3CCCCC3)c3n(c2c1)CC=Cc1ncccc1-3	> 1000 nM	1000 to 10000 nM
O=C(O)c1ccc2c(C3CCCCC3)c3n(c2c1)CCCc1ncccc1-3	100 to 1000 nM	100 to 1000 nM
O=C(O)/C=C/c1ccc(NC(=O)C2(NC(=O)c3ccc4c(C5CCCCC5)c5n(c4c3)CCCCNc3ccccc3-5)CCCC2)cc1	> 1000 nM	< 100 nM
O=C(O)/C=C/c1ccc(NC(=O)C2(NC(=O)c3ccc4c(C5CCCCC5)c5n(c4c3)CC(=O)Nc3cccnc3-5)CCCC2)cc1	100 to 1000 nM	< 100 nM
NC(=O)C1Cc2ccccc2-c2c(C3CCCCC3)c3ccc(C(=O)O)cc3n2C1 (centres unmarked)	100 to 1000 nM	100 to 1000 nM
CNC(=O)C1Cc2ccccc2-c2c(C3CCCCC3)c3ccc(C(=O)O)cc3n2C1 (centres unmarked)	100 to 1000 nM	100 to 1000 nM
CN(C)C(=O)C1Cc2ccccc2-c2c(C3CCCCC3)c3ccc(C(=O)O)cc3n2C1 (centres unmarked)	100 to 1000 nM	100 to 1000 nM
O=C(O)c1ccc2c(C3CCCCC3)c3n(c2c1)CC(C(=O)NCCO)Cc1ccccc1-3 (centres unmarked)	100 to 1000 nM	100 to 1000 nM
CN(C)CCNC(=O)C1Cc2ccccc2-c2c(C3CCCCC3)c3ccc(C(=O)O)cc3n2C1 (centres unmarked)	100 to 1000 nM	100 to 1000 nM
CN(C)CCNC(=O)C1Cc2ccccc2-c2c(C3CCCCC3)c3ccc(C(=O)NS(=O)(=O)N(C)C)cc3n2C1 (centres unmarked)	100 to 1000 nM	100 to 1000 nM
CN1CCN(C(=O)C2Cc3ccccc3-c3c(C4CCCCC4)c4ccc(C(=O)O)cc4n3C2)CC1 (centres unmarked)	100 to 1000 nM	100 to 1000 nM
O=C(O)c1ccc2c(C3CCCCC3)c3n(c2c1)CC(C(=O)N1CCC(N2CCCC2)CC1)Cc1ccccc1-3 (centres unmarked)	100 to 1000 nM	100 to 1000 nM
COC(=O)c1ccc2c(C3CCCCC3)c3n(c2c1)CCCc1ccccc1-3 [Example 2, Methyl 13-cyclohexyl-6,7-dihydro-5H-indolo[2,1-a][2]benzazepine-10-carboxylate]	> 1000 nM	> 10000 nM
O=C(O)c1ccc2c(C3CCCCC3)c3n(c2c1)CCCc1ccccc1-3 [Example 3, 13-cyclohexyl-6,7-dihydro-5H-indolo[2,1-a][2]benzazepine-10-carboxylic acid]	100 to 1000 nM	100 to 1000 nM
COC(=O)c1ccc2c(C3CCCCC3)c3n(c2c1)Cc1ccccc1-3 [Example 6, Methyl 11-cyclohexyl-6H-isoindolo[2,1-a]indole-3-carboxylate]	> 1000 nM	> 10000 nM
O=C(O)c1ccc2c(C3CCCCC3)c3n(c2c1)Cc1ccccc1-3 [Example 7]	100 to 1000 nM	> 10000 nM
COC(=O)c1ccc2c(C3CCCCC3)c3n(c2c1)C(O)c1ccccc1-3 (centres unmarked) [Example 8]	> 1000 nM	1000 to 10000 nM
COC(=O)c1ccc2c(C3CCCCC3)c3n(c2c1)CC(=O)Nc1cccnc1-3 [Example 14, Methyl 13-cyclohexyl-6,7-dihydro-6-oxo-5H-pyrido[3′,2′:5,6][1,4]diazepino[1,7-a]indole-10-carboxylate]	> 1000 nM	> 10000 nM
O=C1Cn2c(c(C3CCCCC3)c3ccc(C(=O)O)cc32)-c2ncccc2N1 [Example 15, 13-cyclohexyl-6,7-dihydro-6-oxo-5H-pyrido[3′,2′:5,6][1,4]diazepino[1,7-a]indole-10-carboxylic acid]	100 to 1000 nM	1000 to 10000 nM
CCOC(=O)c1cc2ccccc2c2c(C3CCCCC3)c3ccc(C(=O)OC)cc3n12 [Example 16, 6-ethyl-9-methyl-12-cyclohexyl-indolo[2,1-a]isoquinoline-6,9-dicarboxylic acid]	> 1000 nM	> 10000 nM
O=C(O)c1ccc2c(C3CCCCC3)c3n(c2c1)CC=Cc1ccccc1-3 [Example 18, 13-cyclohexyl-7H-indolo[2,1-a][2]benzazepine-10-carboxylic acid]	> 1000 nM	1000 to 10000 nM
CN(C)S(=O)(=O)NC(=O)c1ccc2c(C3CCCCC3)c3n(c2c1)CC=Cc1ccccc1-3 [Example 19, 13-cyclohexyl-N-(dimethylaminosulfonyl)-7H-indolo[2,1-a][2]benzazepine-10-carboxamide]	100 to 1000 nM	100 to 1000 nM
COC(=O)c1ccc2c(C3CCCCC3)c3n(c2c1)CC(=O)Nc1ccccc1-3 [Example 20, Methyl 13-cyclohexyl-6,7-dihydro-6-oxo-5H-indolo[1,2-d][1,4]benzodiazepine-10-carboxylate]	> 1000 nM	1000 to 10000 nM
O=C1Cn2c(c(C3CCCCC3)c3ccc(C(=O)O)cc32)-c2ccccc2N1 [Example 21, 13-cyclohexyl-6,7-dihydro-6-oxo-5H-indolo[1,2-d][1,4]benzodiazepine-10-carboxylic acid]	100 to 1000 nM	100 to 1000 nM
CN1C(=O)Cn2c(c(C3CCCCC3)c3ccc(C(=O)O)cc32)-c2ccccc21 [Example 22, 13-cyclohexyl-6,7-dihydro-6-oxo-5-methyl-5H-indolo[1,2-d][1,4]benzodiazepine-10-carboxylic acid]	100 to 1000 nM	100 to 1000 nM
O=C(O)CCCc1nc(C2(NC(=O)c3ccc4c(C5CCCCC5)c5n(c4c3)CC=Cc3ccccc3-5)CCCC2)no1 [Example 23, 3-[1-[[(13-cyclohexyl-7H-indolo[2,1-a][2]benzazepin-10-yl)carbonyl]amino]cyclopentyl]-1,2,4-oxadiazole-5-butanoic acid]	> 1000 nM	100 to 1000 nM
O=C(O)c1ccc(-c2nc(C3(NC(=O)c4ccc5c(C6CCCCC6)c6n(c5c4)CC=Cc4ccccc4-6)CCCC3)no2)cc1 [Example 24]	> 1000 nM	100 to 1000 nM
O=C(O)/C=C/c1ccc(-c2nc(C3(NC(=O)c4ccc5c(C6CCCCC6)c6n(c5c4)CC=Cc4ccccc4-6)CCCC3)no2)cc1 [Example 25]	> 1000 nM	100 to 1000 nM
